The values below come from paper PMC5618561 (International Journal of Molecular Sciences, 2017).

pIC50: −log10 of the molar value. Read-outs that look alike come from different tables or passages of the source.

By pIC50 is commonly meant the IC50 on a negative log10 scale, so that one unit is a factor of ten.

The test system of series [1] is pyruvate oxidation of isolated rat liver mitochondria. In words: ADP-stimulated pyruvate oxidation of isolated rat liver mitochondria (high-resolution respirometry). The series is classed as biochemical.
Series [2] concerns 2-oxoglutarate oxidation of isolated rat liver mitochondria. Briefly: ADP-stimulated 2-oxoglutarate oxidation of rat liver mitochondria. The series is classed as biochemical. The following applies: 3 min preincubation with 1 mM ATP, 5 mM MgCl2, 10 mM 2-oxoglutarate, 1 mM ADP, read-out: Apparent IC50 of inhibition of 2-oxoglutarate oxidation.
Series [3] concerns glutamate oxidation of isolated rat liver mitochondria. In words: ADP-stimulated glutamate (+ malate) oxidation of rat liver mitochondria. The conditions noted are these: 3 min preincubation with 1 mM ATP, 5 mM MgCl2, 10 mM glutamate, 5 mM malate, 1 mM ADP, read-out: Apparent IC50 of inhibition of glutamate oxidation. The series is classed as biochemical.
Series [4] deals with T1, α-lipoamide dehydrogenase (Rattus norvegicus, UniProt Q6P6R2).
T1 construct: After 3 min incubation of rat liver mitochondria (0.3 mg protein/mL) in MTP medium; from tissue; host or cells: liver mitochondria of Wistar rat
T1 sequence (Q6P6R2 36-509): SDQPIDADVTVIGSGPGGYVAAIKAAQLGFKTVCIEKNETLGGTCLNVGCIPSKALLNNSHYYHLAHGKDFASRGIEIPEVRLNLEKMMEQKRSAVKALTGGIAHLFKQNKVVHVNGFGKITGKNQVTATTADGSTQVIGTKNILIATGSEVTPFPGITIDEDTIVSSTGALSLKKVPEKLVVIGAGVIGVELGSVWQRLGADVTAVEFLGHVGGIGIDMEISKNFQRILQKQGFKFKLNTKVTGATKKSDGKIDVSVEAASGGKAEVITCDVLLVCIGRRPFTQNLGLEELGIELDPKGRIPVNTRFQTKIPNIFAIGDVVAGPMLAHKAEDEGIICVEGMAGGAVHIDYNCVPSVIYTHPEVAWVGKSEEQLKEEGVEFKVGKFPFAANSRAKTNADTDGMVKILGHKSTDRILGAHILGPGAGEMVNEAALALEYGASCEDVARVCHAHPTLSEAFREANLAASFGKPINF
Briefly: α-lipoamide dehydrogenase activity in intact mitochondria (re-reduction of NAD(P)+ after α-lipoamide, NAD(P)H fluorescence). It is filed as biochemical. The following applies: for pIC50: read-out: Apparent IC50 of inhibition of α-lipoamide dehydrogenase; for inhibition of α-lipoamide dehydrogenase (in words): rat liver mitochondria, abstract summary.

The target in series [5] is T2, pyruvate dehydrogenase (Rattus norvegicus, UniProt P26284+P49432).
T2 construct: the mitochondrial suspension (0.3 mg protein) was placed into a 0.5 mL spectrophotometric cuvette; from tissue; host or cells: liver mitochondria of Wistar rat, solubilised with 0.1% N-dodecyl-β-D-maltoside
T2 sequence (P26284 30-390): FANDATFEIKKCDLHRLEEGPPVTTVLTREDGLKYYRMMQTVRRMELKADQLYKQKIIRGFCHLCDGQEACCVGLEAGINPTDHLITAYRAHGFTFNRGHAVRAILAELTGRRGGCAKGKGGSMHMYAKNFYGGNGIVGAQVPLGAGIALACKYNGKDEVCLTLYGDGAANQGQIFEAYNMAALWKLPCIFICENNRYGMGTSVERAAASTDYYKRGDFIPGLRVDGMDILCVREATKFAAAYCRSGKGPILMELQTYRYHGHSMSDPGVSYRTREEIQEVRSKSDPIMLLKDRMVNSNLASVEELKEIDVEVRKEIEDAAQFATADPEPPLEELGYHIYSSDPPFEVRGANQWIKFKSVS
T2 sequence (P49432 31-359): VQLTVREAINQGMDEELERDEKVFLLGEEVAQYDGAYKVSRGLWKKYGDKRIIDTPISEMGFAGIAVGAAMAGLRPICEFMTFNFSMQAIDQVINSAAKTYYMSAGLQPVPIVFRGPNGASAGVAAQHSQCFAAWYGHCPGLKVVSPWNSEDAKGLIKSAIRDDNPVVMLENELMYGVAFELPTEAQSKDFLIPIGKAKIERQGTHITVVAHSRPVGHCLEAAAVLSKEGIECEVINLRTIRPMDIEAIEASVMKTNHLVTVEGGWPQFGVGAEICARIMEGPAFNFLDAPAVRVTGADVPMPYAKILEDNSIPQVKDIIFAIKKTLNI
Briefly: pyruvate dehydrogenase (PDH) activity of isolated rat liver mitochondria. The series is classed as biochemical. The following applies: preincubation with 10 mM VPA and 1 mM ATP; excess α-lipoamide dehydrogenase. On the procedure:
(§1) (A) The plotted pyruvate dehydrogenase (PDH) activities are averages of three independent experiments; (B) Swelling of mitochondria in 0.1 M ammonium pyruvate buffer. One representative experiment (out of 3) is shown. […] Experimental conditions as described in Materials and Methods.
PDH activity in this suspension was determined according to Scislowski and Davis with the following modifications: the mitochondrial suspension (0.3 mg protein) was placed into a 0.5 mL spectrophotometric cuvette, containing 0.1 M potassium phosphate buffer (pH 7.4), 5 mM MgCl2, 3 mM NAD^+, 0.1 mM CoASH, 2 mM dithiothreitol, 0.1% N-dodecyl-β-D-maltoside, 0.4 mM thiamine pyrophosphate, 20 µg/mL diaphorase (Boehringer Mannheim, Mannheim, Germany), and 10 mM pyruvate. PDH activity was measured at 30 °C using a spectrophotometer (Aminco DW 2000, SLM Instruments, Urbana, IL, USA) with 340–380 nm dual wavelength photometry.

Series [6] concerns pyruvate transport of rat liver mitochondria. In words: pyruvate transport: pyruvate-dependent swelling of mitochondria in ammonium pyruvate. The series is classed as biochemical. The following applies: 1 mM compound; rat liver mitochondria in 0.1 M ammonium pyruvate. On the procedure:
as §1
For pyruvate transport determinations, the mitochondrial suspension (0.6–0.7 mg protein) was placed into a 3 mL spectrophotometric cuvette, containing 5 mM MgCl2, 2 µM rotenone, 1.5 µg/mL antimycin, and 0.1 M ammonium pyruvate (obtained from ammonium hydroxide and pyruvic acid). When indicated, 1 mM cinnamate was added. Mitochondrial swelling was estimated at 30 °C using a spectrophotometer (Aminco DW 2000, SLM Instruments) at 546 nm.

The conditions of series [7]: patients with epilepsy; cited from earlier work.
Series [8] relates to pilocarpine-induced status epilepticus (SE). The conditions noted are these: cited from earlier work; for protection against pilocarpine-induced status epilepticus: rat.
Series [9] concerns epilepsy model. The conditions noted are these: racemate; dependent on the epilepsy model; cited from earlier work.
Series [10] has as its system SWV/Finn mice. The conditions noted are these: cited from earlier work.
The conditions of series [11]: cited from earlier work.
Setting [12] is: isolated rat liver mitochondria, 3 min preincubation with drug, 1 mM ATP, 5 mM MgCl2, 10 mM pyruvate, 5 mM malate, ADP, read-out: Apparent IC50 of inhibition of pyruvate oxidation.
Where [13] appears, read: isolated rat liver mitochondria, pyruvate-dependent reduction of NAD(P)+, estimated value.
Setting [14] is: SWV/Finn mice, strain highly susceptible to VPA-induced teratogenicity.

Take `CCCC(C(=O)O)C(C)CC` (stereo not drawn) [SPA, sec-Butylpropylacetic acid]: the pIC50 in series [1] (setting [12]) is 4.30; in series [2], 4.30; in series [3], 2.70; in series [4] ([…], pyruvate-dependent reduction of NAD(P)+ after 75 µM α-lipoamide, preincubation with 1 mM ATP), 4.00. Moreover, in [4], the “inhibition of α-lipoamide dehydrogenase (in words)” value (from here on “inhibition … (in words)”) is given as “Strong inhibition”.
For the molecule `CCCC(CCC)C(=O)O` [VPA, Valproic acid], the pIC50 in [1] (isolated rat liver mitochondria, 3 min preincubation with drug, 1 mM ATP, 5 mM MgCl2, 10 mM pyruvate, 5 mM malate, ADP, listed as valproic acid, read-out: Apparent IC50 of inhibition of pyruvate oxidation) was roughly 4.30; in series [1] (setting [12]) it was 4.30; in [2] it was 4.30; in series [3], 2.00; in series [4] (isolated rat liver mitochondria, pyruvate-dependent reduction of NAD(P)+ after 75 µM α-lipoamide, preincubation with 1 mM ATP) it was 4.10. For the same molecule, in series [4] (0.5 and 1 mM VPA), the “pyruvate-dependent re-reduction of NAD(P)+ after α-lipoamide” value was “strongly inhibited”. Also, the “glutamate-dependent re-reduction of NAD(P)+ after α-lipoamide” value in series [4] (glutamate as substrate) was “no effects”. Also, in series [4], the “inhibition … (in words)” value is recorded as “strongly inhibited”. Besides, the “effect on pyruvate dehydrogenation velocity (PDH activity)” value in [5] is “slight increase”. Also, the “effect on pyruvate-dependent swelling velocity (pyruvate transport)” value in series [6] is on record as “no effect”. Also, in series [7], the therapeutic blood levels is 40 to 100 mg/L.
Regarding `CCC(C)C(CC)C(N)=O` (stereo not drawn) [VCD, Valnoctamide], in series [4] (setting [13]), the pIC50 is less than 3.00. In addition, the “inhibition … (in words)” value in [4] was “only small effects”. For the same molecule, in series [8] (180 mg/kg), the “block of pilocarpine-induced electrographic SE” value is “did block”. The “protection against pilocarpine-induced status epilepticus” value is “protected” in series [8] (65 mg/kg intraperitoneally at seizure onset) and “protection was lost” in series [8] (80 mg/kg 30 min after seizure onset). Also, the “anticonvulsant activity: concentrations lower than VPA” value in [9] is 2–16 times. Also, the teratogenic effects result in series [10] (setting [14]) is on record as “did not show any significant teratogenic effects”. In addition, the “biotransformation to the corresponding acid” value in series [11] (in vivo) is recorded as “low biotransformation”.
Take `CC[C@H](C(N)=O)[C@@H](C)CC` [(2S,3S)-VCD]: in [10] (setting [14]), the teratogenic effects result is “did not show any significant teratogenic effects”.
`CCCC(C(N)=O)C(C)CC` (stereo not drawn) [SPD, sec-Butylpropylacetamide]: the pIC50 in [1] (setting [12]) was 2.52; in [2], 3.00; in [3], 2.70; in series [4] ([…], pyruvate-dependent reduction of NAD(P)+, estimated value), less than 3.00. The “inhibition … (in words)” value in series [4] is “only small effects”.
With Valnoctic acid [VCA], the negative-log IC50 (pIC50) in series [1] (both substrates summarised together, preincubated in the presence of ATP, read-out: IC50 of inhibition of pyruvate and 2-oxoglutarate oxidation rates of liver mitochondria) was 3.05 to 3.70; in series [1] (setting [12]), 3.05; in series [2], 3.70; in series [3], 2.70; in series [4] it was 3.52. For the same molecule, in [10] (mouse, in vivo), the teratogenic effects entry is recorded as “did not show any significant teratogenic effects”.
Consider `O=[As][O-].[Na+]` [arsenite], for which the “inhibition of DLDH activity” value in series [4] is reported as “complete inhibition”.
With `CC[C@H](C)[C@@H](CC)C(N)=O` [(2R,3S)-VCD], the teratogenic effects result in [10] (setting [14]) is given as “did not show any significant teratogenic effects”.
On to `O=C(O)/C=C/c1ccccc1` [cinnamate], for which, in series [6], the “effect on pyruvate-dependent swelling velocity (pyruvate transport)” value was “clearly inhibited”.
Take `CCCC(CCC)C(N)=O` [VPD, Valpromide]: the negative-log IC50 (pIC50) in series [1] (setting [12]) is 2.30; in series [2], 2.10; in series [3], 2.52; in [4] (setting [13]) it was less than 3.00. In [4], the “inhibition … (in words)” value is “only small effects”. Moreover, the “biotransformation to the corresponding acid” value in series [11] (humans) is listed as “rapid transformation to VPA”.
